Experimental data as given in patent US20100016225A1, “CONJUGATES COMPRISED OF POLYMER AND HIV gp-41-DERIVED PEPTIDES AND THEIR USE IN THERAPY” (Trimeris, Inc., priority 2002, published 2010).

Key:
HIV-1 T20S = assay type: cell-based; conditions: HIV-1 T20S, Table 5
Source text: (§1) Illustrated in this example is the unexpected result of antiviral potency using the conjugates according to the present invention. […] In determining antiviral activity (e.g., one measure being the ability to inhibit transmission of HIV to a target cell) of the conjugates according to the present invention, used was an in vitro assay which has been shown, by data generated using synthetic peptides derived from either of the HR regions of HIV gp41, to be predictive of antiviral activity observed in vivo.
(§2) The infectivity assays score for reduction of infectious virus titer employing the indicator cell lines MAGI or the CCR5 expressing derivative cMAGI. Both cell lines exploit the ability of HIV-1 that to transactivate the expression of a β-galactosidase reporter gene driven by the HIV-LTR. The β-gal reporter has been modified to localize in the nucleus and can be detected with the X-gal substrate as intense nuclear staining within a few days of infection. The number of stained nuclei can thus be interpreted as equal to the number of infectious virions in the challenge inoculum if there is only one round of infection prior to staining. Infected cells are enumerated using a CCD-imager and both primary and laboratory adapted isolates show a linear relationship between virus input and the number of infected cells visualized by the imager. […] Peptides tested for antiviral activity were diluted into various concentrations, and tested in duplicate or triplicate against an HIV inoculum adjusted to yield approximately 1500-2000 infected cells/well of a 48 well microtiter plate. The peptide (in the respective dilution) was added to the CMAGI or MAGI cells, followed by the virus inocula; and 24 hours later, an inhibitor of infection and cell-cell fusion (e.g., T20) was added to prevent secondary rounds of HIV infection and cell-cell virus spread. The cells were cultured for 2 more days, and then fixed and stained with the X-gal substrate to detect HIV-infected cells. The number of infected cells for each control and peptide dilution was determined with the CCD-imager, and then the IC50 and IC90 were calculated (expressed in μg/ml).
In this first example of antiviral potency, two clinical isolates of HIV were obtained from the same HIV-infected individual. A first isolate, hereby designated “HIV-1 T20S” for ease of description, was sensitive to the antiviral effect of T20 (SEQ ID NO:4) both in vitro and in vivo. […] The results, with the IC50 expressed in ng/ml, are illustrated in Table 2.
(§3) Using the methods taught in Example 1 herein, additional conjugates were produced by varying the polymer, the terminus of the synthetic peptide which is operably bound to polymer, and the reactive functionality used for operably binding synthetic peptide to polymer. Two molecules of synthetic peptide (e.g. SEQ ID NO:4) were operably bound to polymer. Such conjugates were then tested for antiviral activity against HIV isolates IIIB, and HIV-1 T20S & HIV-1 T20R (see Table 2 for HIV resistant strains), with the antiviral activity (IC50) expressed in μg/ml. The results for the various conjugates (Table 5, A-Q), terminus of synthetic peptide used for operably binding polymer (Table 5, C-terminus denoted as “C”, N-terminus denoted as “N”) or if an internal lysine was used (Table 5, “Lys 18”, signifying lysine as amino acid residue 18 in the amino acid sequence of the synthetic peptide), antiviral activity (IC50) against HIV-1 strain IIIB (Table 5, “IIIB”), antiviral activity (IC50) against HIV-1 T20S (Table 5, “T20S”) and antiviral activity (IC50) against HIV-1 T20R (Table 5, “T20R”), are illustrated in Table 5.

HIV-1 T20R = assay type: cell-based; conditions: HIV-1 T20R, Table 5
Source text: The infectivity assays score for reduction of infectious virus titer employing the indicator cell lines MAGI or the CCR5 expressing derivative cMAGI. Both cell lines exploit the ability of HIV-1 that to transactivate the expression of a β-galactosidase reporter gene driven by the HIV-LTR. The β-gal reporter has been modified to localize in the nucleus and can be detected with the X-gal substrate as intense nuclear staining within a few days of infection. The number of stained nuclei can thus be interpreted as equal to the number of infectious virions in the challenge inoculum if there is only one round of infection prior to staining. […] The peptide (in the respective dilution) was added to the CMAGI or MAGI cells, followed by the virus inocula; and 24 hours later, an inhibitor of infection and cell-cell fusion (e.g., T20) was added to prevent secondary rounds of HIV infection and cell-cell virus spread. The cells were cultured for 2 more days, and then fixed and stained with the X-gal substrate to detect HIV-infected cells. The number of infected cells for each control and peptide dilution was determined with the CCD-imager, and then the IC50 and IC90 were calculated (expressed in μg/ml).
In this first example of antiviral potency, two clinical isolates of HIV were obtained from the same HIV-infected individual.
Using the methods taught in Example 1 herein, additional conjugates were produced by varying the polymer, the terminus of the synthetic peptide which is operably bound to polymer, and the reactive functionality used for operably binding synthetic peptide to polymer. Two molecules of synthetic peptide (e.g. SEQ ID NO:4) were operably bound to polymer.

HIV-1 strain IIIB = experiment: In vitro infectivity assay, HIV-1 strain IIIB (Table 5); assay type: cell-based
Source text: as §1, §2, §3

HIV = conditions: Lawless et al., 1996; cited from earlier work

Substance	T20S (antiviral activity, IC50) (HIV-1 T20S)	T20R (antiviral activity, IC50) (HIV-1 T20R)	IIIB (antiviral activity, IC50) (HIV-1 strain IIIB)	50% effective concentration values (EC50), blocked infection of T cells (HIV) [µg/mL]
Conjugate E: two molecules of SEQ ID NO:4 bound via N-terminus to PEG 8	.026 µg/mL	.020 µg/mL	.018 µg/mL	–
Conjugate O: two molecules of SEQ ID NO:4 bound via C-terminus to GLY-C6 (glycine linker)	.083 µg/mL	–	–	–
Conjugate Q: two molecules of SEQ ID NO:4 bound via internal lysine (Lys18) to PEG 6	.055 µg/mL	.120 µg/mL	.057 µg/mL	–
Conjugate A: two molecules of SEQ ID NO:4 bound via N-terminus to PEG 6	.029 µg/mL	.050 µg/mL	.037 µg/mL	–
Conjugate D: two molecules of SEQ ID NO:4 bound via N-terminus to alkyl C5	.036 µg/mL	.049 µg/mL	.039 µg/mL	–
Conjugate G: two molecules of SEQ ID NO:4 bound via N-terminus to alkyl C11	.176 µg/mL	.218 µg/mL	.174 µg/mL	–
Conjugate N: two molecules of SEQ ID NO:4 bound via N-terminus to PEG 10	.017 µg/mL	.023 µg/mL	.039 µg/mL	–
Conjugate L: two molecules of SEQ ID NO:4 bound via C-terminus to GLY-PEG 3 (glycine linker)	.061 µg/mL	–	–	–
Conjugate C: two molecules of SEQ ID NO:4 bound via C-terminus to PEG 6	.046 µg/mL	.050 µg/mL	.065 µg/mL	–
Conjugate F: two molecules of SEQ ID NO:4 bound via N-terminus to alkyl C8	.049 µg/mL	.087 µg/mL	.089 µg/mL	–
Conjugate J: two molecules of SEQ ID NO:4 bound via N-terminus to PEG 3	.028 µg/mL	.049 µg/mL	.036 µg/mL	–
Conjugate M: two molecules of SEQ ID NO:4 bound via C-terminus to GLY-C2 (glycine linker)	.085 µg/mL	–	–	–
Conjugate I: two molecules of SEQ ID NO:4 bound via N-terminus to PEG 4-6-4	.012 µg/mL	.029 µg/mL	.029 µg/mL	–
LTWQEWDREINNYTSLIYSLIEESQNQQEENEQELL [synthetic peptide alone]	.010 µg/mL	1.2 µg/mL	.007 µg/mL	–
Conjugate P: two molecules of SEQ ID NO:4 bound via C-terminus to GLY-PEG 6 (glycine linker)	.031 µg/mL	–	–	–
NNLLRAIEAQQHLLQLTVWGIKQLQARILAVERYLKDQ [DP107]	–	–	–	1
Conjugate B: two molecules of SEQ ID NO:4 bound via C-terminus to PEG 6	.053 µg/mL	.070 µg/mL	.117 µg/mL	–
Conjugate K: two molecules of SEQ ID NO:4 bound via N-terminus to PEG 4	.026 µg/mL	.067 µg/mL	.033 µg/mL	–
Conjugate H: SEQ ID NO:4 bound via N-terminus to AT, a triacid (e.g., trisuccinimidylamino triacetate)	.047 µg/mL	.124 µg/mL	.046 µg/mL	–
